Reference: US8741843B2, “Compositions and methods for inducing angiogenesis” (priority 2006, dated 2014)
“Also recorded” adds a separate entry of the source.

Experiments:
endothelial cells [1] = experiment: Hypoxia-induced apoptosis of endothelial cells (Annexin V FITC/PI FACS); assay type: cell-based, human; settings: for effect on hypoxia-induced apoptosis of endothelial cells / percent apoptosis (PI/Annexin V): 24 hours hypoxia; for effect on hypoxia-induced apoptosis of endothelial cells: peptides 10 ng/ml; for percent apoptosis (PI/Annexin V): FIGS. 24a-d, hypoxia alone 79.3%
Protocol: FIG. 17 is a histogram depicting the effect of ADOPep1 on hypoxia-induced apoptosis of endothelial cells. Endothelial cells were exposed for 24 hours hypoxia in the presence of endothelial cell growth medium supplemented with 5% fetal calf serum (FCS), followed by incubation under hypoxia conditions with ADOPep1 (10 ng/ml) or anti-GRP78 antibody (100 ng/ml). Cells (100,000/tube) were incubated with Annexin-V FITC/PI for endothelial cell apoptosis determination. […] Similarly, anti-GRP78 antibody induced a reduction in apoptosis up to 32%.
FIGS. 24a-d are FACS analyses depicting hypoxia induced apoptosis. Endothelial cells were incubated for 24 hours under hypoxia conditions in the absence (FIG. 24a) or presence of 10 ng/ml of ADOPepe1 (FIG. 24b), peptide of Motif A (FIG. 24c) or peptide of motif C (FIG. 24d) and the level of apoptosis was determined using FACS analysis and the PI (shown on the Y axis)/Annexin V (shown on the X axis) markers.
FIG. 25 is a bar graph depicting the inhibition of hypoxia induced apoptosis by ADOPep 1, Motif A and Motif B. Endothelial cells were incubated for 24 hours under hypoxia conditions in the absence or presence of 10 ng/ml of ADOPepe1, Motif A, Motif B or motif C and the level of apoptosis was determined using FACS analysis and quantified as the percent of Annexin V and PI positive cells. The results represent average±standard deviation of 4 independent experiments.
FIGS. 33a-f are representative FACS analyses depicting a specific inhibition of hypoxia-induced apoptosis of endothelial cells by ADOPep1. Endothelial cells in Petri dishes were incubated for 24 hours with 5% FCS in supplement-free endothelial cell growth medium under normoxia (FIGS. 33a and d), exposed to 24 hours hypoxia (Figures c and f) or incubated under normoxia with 100 micromolar per 100,000 cells CoCl2 (FIGS. 33b and e), in the absence (FIGS. 33a-c) or presence (FIGS. 33d-f) of 10 ng/ml Adopep1 peptide (for 24 hours). Cells were trypsinized and immediately re-suspended in PBS with 5% FCS and 0.1% Na-azide. Samples containing 100,000 cells were tested for apoptosis using the Annexin-FITC (X axis) and propidium iodide (Y axis) kit (Bender Medsystems, Vienna, Austria), according to manufacturer's instructions. Results were analyzed by FACScan (Beckton Dickinson).
EC were incubated for 24 hours with 5% FCS in EC growth media in Petri dishes plates followed by 24 hours incubation under hypoxia conditions with ADOPep1 (10 ng/ml), anti GRP78 antibody (Santa Cruz Biotechnology, Calif., USA) (1 microgram/ml) or recombinant VEGF (10 ng/ml). The Annexin V FITC/PI detects the phosphatidylserin on the apoptotic cells using flow cytometry. Human Annexin V-FITC kit (Bender Medsystems, Vienna, Austria) was used for the measurement of EC apoptosis percentage following manufacturer's instructions. Samples were analyzed using a fluorescence activated cell sorter (FACScan Beckton Dickinson, Calif., USA).

[2] = biological target: T1, GRP78 on endothelial cells (Homo sapiens, UniProt P11021); experiment: FACS competition of peptides with GRP78 polyclonal antibody on endothelial cells under hypoxia; assay type: binding; settings: hypoxic conditions; for inhibition of anti GRP78 binding to endothelial cells: ten micrograms of peptide
T1 construct: endogenous in cells; host or cells: HUVEC / endothelial cells from umbilical cords, under normoxia or hypoxia
T1 sequence (P11021 19-654): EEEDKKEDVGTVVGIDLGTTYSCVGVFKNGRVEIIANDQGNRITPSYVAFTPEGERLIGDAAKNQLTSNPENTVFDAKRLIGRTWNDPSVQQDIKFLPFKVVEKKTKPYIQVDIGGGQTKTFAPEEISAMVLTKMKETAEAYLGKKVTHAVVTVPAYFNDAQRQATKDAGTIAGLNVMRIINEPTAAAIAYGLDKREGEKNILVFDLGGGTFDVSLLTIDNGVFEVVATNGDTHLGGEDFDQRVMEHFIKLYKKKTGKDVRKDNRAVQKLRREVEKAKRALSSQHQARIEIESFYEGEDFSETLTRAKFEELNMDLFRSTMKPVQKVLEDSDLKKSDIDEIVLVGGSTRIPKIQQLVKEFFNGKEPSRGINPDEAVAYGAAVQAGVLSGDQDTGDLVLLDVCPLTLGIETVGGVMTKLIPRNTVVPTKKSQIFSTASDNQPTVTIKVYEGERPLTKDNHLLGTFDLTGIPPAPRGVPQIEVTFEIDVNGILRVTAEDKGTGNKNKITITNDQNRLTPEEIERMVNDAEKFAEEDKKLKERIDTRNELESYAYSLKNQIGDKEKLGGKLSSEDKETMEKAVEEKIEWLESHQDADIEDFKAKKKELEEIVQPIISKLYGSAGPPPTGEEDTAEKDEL
Protocol: Endothelial cells were cultured for 24 hours under hypoxic conditions in endothelial cell growth medium. Cells were removed by trypsin and incubated for 1 hour on ice with increasing concentrations of AdoPep1, Motif A and Motif C peptides. GRP78 polyclonal antibody (2 μg/100,000) was added to the cells for 2 hours on ice. Anti-goat FITC (Jackson ImmunoResearch) was added for 30 minutes on ice. IgG1-FITC was used as the isotype control. The samples were analyzed with a FACScan (Beckton Dickinson). […] FIG. 28d depicts the average percent binding of GRP78 to endothelial cells as a function of peptide amount as determined by 2 independent experiments.

endothelial cells [3] = experiment: Tube formation of endothelial cells on Cultrex Basement Membrane Extract; assay type: cell-based, human; settings: 10 ng/ml, 18 hours, starvation and normoxic conditions
Protocol: FIG. 27 is a graph depicting induction of tube formation using AdoPep1 and Motif A (SEQ ID NO:7) but not the scrambled sROY peptide. Endothelial cells were incubated in media without supplements for 24 hours, and 50,000 cells were then transferred in 500 μl medium to 24-well plates precoated with 250 μl Cultrex Basement Membrane Extract (with reduced growth factors) (R&D Systems, Minneapolis, Minn., USA). AdoPep1, Motif A and scrambled sROY peptides were added at an optimal concentration of 10 ng/ml (based on preliminary findings), and the slides were examined by light microscopy after 18 hours incubation. The results represent average±SD of three experiments using 3 different cords. The length of the network of connected cells (tube formation) was measured in micrometers in 5 different areas of each well using Image-Pro Plus Image software (Media Cybernetics, Silver Spring, Md., USA).

Substance | effect on hypoxia-induced apoptosis of endothelial cells (endothelial cells [1]) | more efficient in decreasing apoptosis as compared to the anti-GRP78 antibody (endothelial cells [1]; FIG. 17, hypoxia) [%] | percent apoptosis of endothelial cells (Annexin-V/PI) (endothelial cells [1]; FIG. 17, hypoxia, ADOPep1 10 ng/ml, anti-GRP78 antibody 100 ng/ml) [%] | inhibition of hypoxia induced apoptosis (endothelial cells [1]; FIG. 34, 24 hours hypoxia, 10 ng/ml) | percent apoptosis (PI/Annexin V) (endothelial cells [1]; 10 ng/ml) [%] | inhibition of anti GRP78 binding to endothelial cells (in words) [2] | inhibition of anti GRP78 binding to endothelial cells [2] | tube formation (length of the network of connected cells) (endothelial cells [3])
HWRRAHLLPRLP [ADOPep1, ADAM15 derived peptide, amino acids 286-297 of the metalloprotease domain] | prevented apoptosis to levels which are similar to those seen under normoxic conditions; also recorded: capable of inhibiting the hypoxia induced apoptosis; also recorded: remarkable decrease in the stained cells; also recorded: significant inhibition of hypoxia induced apoptosis; also recorded: a significant fraction of hypoxia-induced apoptosis was inhibited | 29 | 25 | approximately 40% | 28.6 | inhibit the binding of GRP78 to endothelial cells | approximately 80% | significantly increased the length of the network of connected cells
HWRRP [Motif A, 5 amino acid motif peptide] | capable of inhibiting the hypoxia induced apoptosis; also recorded: significant inhibition of hypoxia induced apoptosis | – | – | – | 35.8 | inhibit the binding of GRP78 to endothelial cells | ~60% | significantly increased the length of the network of connected cells
